Data as given in patent US5691311A (Biogen, Inc., priority 1995, dated 1997).
Where two headings read alike, the source gives them in different places. Blank lines part the entries; values can stand above or below the compound they belong to.

Key:
[1] = tested on: platelet-dependent thrombosis; details: collagen-coated surfaces, reported values; cited from earlier work
APTT = test: Systemic anticoagulant effect (APTT) of antithrombotic agents; format: in vivo, baboon; details: dose not given
Source text: We also tested the effects of a variety of other agents on template bleeding time in the baboon, as well as on systemic anticoagulant effects (as measured by APTT).

hemostasis = test: Template bleeding time; format: in vivo, baboon
human α-thrombin [2] = target: T1, human α-thrombin (Homo sapiens, UniProt P00734); test: Thrombin-catalyzed hydrolysis of Spectrozyme TH; format: biochemical; details: for Ki: method of Example 9, Spectrozyme TH; for inhibitory activity versus linker length: FIG. 6
T1 construct: proteolysis of the B-chain of α-thrombin; human α-thrombin-catalyzed hydrolysis of Spectrozyme TH
Experimental: The thrombin-catalyzed rate was monitored in a Cary 19 spectrophotometer at 405 nm and recorded continuously as a function of time. Kinetics were performed at room temperature (25°±1°C.) in a 0.05M Tris, pH 7.5, 0.1M NaCl buffer.
For a typical enzyme reaction, 1.0 ml of buffer was added to both the sample and reference cuvettes. […] Immediately following addition of substrate, the contents of the sample cuvette were mixed by use of a plastic pipette. The reaction was monitored spectrophotometrically for 5-15 minutes.
Initial rate velocities at each substrate concentration were expressed as moles Spectrozyme TH hydrolyzed/sec/mole thrombin. This was determined during the initial linear phase of the reaction (≤15% total hydrolysis of substrate) by measuring the slope of the hydrolytic reaction. Lineweaver-Burke plots were constructed accordingly, by plotting the inverse of the initial velocity against the inverse of the substrate concentration.

human α-thrombin [3] = target: T1, human α-thrombin; test: Cleavage of Hirulogs by thrombin (chromogenic and HPLC assays); format: biochemical; details: turnover rate of Hirulog hydrolysis by thrombin
Experimental: Aliquots (0.975 ml) of the reaction mixtures were removed at various times and mixed in a cuvette with 0.025 ml Spectrozyme TH (11 μM final concentration), a chromogenic substrate. The initial rate of reaction was determined and, based on control mixtures containing thrombin in the absence of Hirulog, the % inhibition was calculated.
An alternate method employed reverse-phase HPLC separation of aliquots from a Hirulog/thrombin reaction mixture. In this assay we added human α-thrombin (0.25 μM final concentrations) to a reaction vessel containing one of the above Hirulogs (12.5 μM final concentration). Aliquots (50 μl) were removed both prior to and at various times following the addition of thrombin. The aliquots were either flash frozen of injected directly onto the HPLC column. The HPLC system employed an Applied Biosystems Liquid Chromatography System equipped with an Aquapore C, column (0.46×10 cm). The column was equilibrated in 70% solvent A (0.1% TFA in water) and 30% solvent B (0.085% TFA/70% acetonitrile) and developed with a linear gradient of from 30 to 50% solvent B over 30 minutes at a flow rate of 1 ml/minute. The effluent stream was monitored at 214 nm. Peptide concentrations were determined by measurement of peak heights.
Both of the above-described assays allow determination of the rate of Hirulog hydrolysis by thrombin (expressed in M/min) and turnover rate (kcat; expressed in min^-1).

human α-thrombin [4] = test: human α-thrombin in 20 mM Tris-HCl pH 7.4 containing 0.1M NaCl
[5] = tested on: human α-thrombin (1.6 nM chromogenic assay; 0.25 μM HPLC assay); test: as above

Bleeding Time (hemostasis; in vivo): > 30 min
Compound: CC1CNc2c(cccc2S(=O)(=O)N[C@@H](CCCNC(=N)N)C(=O)N2CC[C@@H](C)C[C@@H]2C(=O)O)C1 (stereo partly drawn) [Argipidine (MD805), argatroban (argipidine)]
ED50 [1]: 550 nmol/kg/min | APTT (% control) (APTT): > 900 % control

Bleeding Time (hemostasis; dose not given): 10 min
Compound: N=C(N)c1ccccc1 [Benzamidine, benzamidine]
ED50 [1]: 3000 nmol/kg/min | APTT (% control) (APTT): 757.6 % control

Compound: CC[C@H](C)[C@H](NC(=O)[C@H](CCC(=O)O)NC(=O)[C@H](CCC(=O)O)NC(=O)[C@H](Cc1ccccc1)NC(=O)[C@H](CC(=O)O)NC(=O)CNC(=O)[C@H](CC(N)=O)NC(=O)CNC(=O)CNC(=O)CNC(=O)CNC(=O)CNC(=O)CN(C)C(=O)[C@H](CCCNC(=N)N)NC(=O)[C@@H]1CCCN1C(=O)[C@H](N)Cc1ccccc1)C(=O)N1CCC[C@H]1C(=O)N[C@@H](CCC(=O)O)C(=O)N[C@@H](CCC(=O)O)C(=O)N[C@@H](Cc1ccc(O)cc1)C(=O)N[C@@H](CC(C)C)C(=O)O [Hirulog-10]
inhibition of thrombin-catalyzed hydrolysis of Spectrozyme TH (in words) (human α-thrombin [2]): poor inhibitors | Ki (human α-thrombin [2]; Ki): > 2000 nM | kcat (human α-thrombin [3]): 0.167 s⁻¹

Compound: CC[C@H](C)[C@H](NC(=O)[C@H](CCC(=O)O)NC(=O)[C@H](CCC(=O)O)NC(=O)[C@H](Cc1ccccc1)NC(=O)[C@H](CC(=O)O)NC(=O)CNC(=O)[C@H](CC(N)=O)NC(=O)CNC(=O)CNC(=O)[C@@H]1CCCN1C(=O)[C@H](CCCNC(=N)N)NC(=O)[C@@H]1CCCN1C(=O)[C@H](N)Cc1ccccc1)C(=O)N1CCC[C@H]1C(=O)N[C@@H](CCC(=O)O)C(=O)N[C@@H](CCC(=O)O)C(=O)N[C@@H](Cc1ccc(O)cc1)C(=O)N[C@@H](CC(C)C)C(=O)O [Hirulog-13]
reduction of activity (human α-thrombin [2]; 18 Å linker length, versus Hirulogs-8, -15, -16): more than 10 fold

Compound: CC[C@H](C)[C@H](NC(=O)[C@H](CCC(=O)O)NC(=O)[C@H](CCC(=O)O)NC(=O)[C@H](Cc1ccccc1)NC(=O)[C@H](CC(=O)O)NC(=O)CNC(=O)[C@H](CC(N)=O)NC(=O)CNC(=O)CNC(=O)CNC(=O)CNC(=O)CNC(=O)CNC(=O)[C@@H]1CCCN1C(=O)[C@H](CCCNC(=N)N)NC(=O)[C@@H]1CCCN1C(=O)[C@H](N)Cc1ccccc1)C(=O)N1CCC[C@H]1C(=O)N[C@@H](CCC(=O)O)C(=O)N[C@@H](CCC(=O)O)C(=O)N[C@@H](Cc1ccc(O)cc1)C(=O)N[C@@H](CC(C)C)C(=O)O [Hirulog-15]
inhibitory activity versus linker length (human α-thrombin [2]): comparable inhibitory activities

Compound: CC[C@H](C)[C@H](NC(=O)[C@H](CCC(=O)O)NC(=O)[C@H](CCC(=O)O)NC(=O)[C@H](Cc1ccccc1)NC(=O)[C@H](CC(=O)O)NC(=O)CNC(=O)[C@H](CC(N)=O)NC(=O)CNC(=O)CNC(=O)CNC(=O)CNC(=O)CNC(=O)CNC(=O)CNC(=O)CNC(=O)[C@@H]1CCCN1C(=O)[C@H](CCCNC(=N)N)NC(=O)[C@@H]1CCCN1C(=O)[C@H](N)Cc1ccccc1)C(=O)N1CCC[C@H]1C(=O)N[C@@H](CCC(=O)O)C(=O)N[C@@H](CCC(=O)O)C(=O)N[C@@H](Cc1ccc(O)cc1)C(=O)N[C@@H](CC(C)C)C(=O)O [Hirulog-16]
inhibitory activity versus linker length (human α-thrombin [2]): comparable inhibitory activities

Compound: CC[C@H](C)[C@H](NC(=O)[C@H](CCC(=O)O)NC(=O)[C@H](CCC(=O)O)NC(=O)[C@H](Cc1ccccc1)NC(=O)[C@H](CC(=O)O)NC(=O)CNC(=O)[C@H](CC(N)=O)NC(=O)CNC(=O)CNC(=O)CNC(=O)CNC(=O)CNC(=O)C[C@H](CCCNC(=N)N)NC(=O)[C@@H]1CCCN1C(=O)[C@H](N)Cc1ccccc1)C(=O)N1CCC[C@H]1C(=O)N[C@@H](CCC(=O)O)C(=O)N[C@@H](CCC(=O)O)C(=O)N[C@@H](Cc1ccc(O)cc1)C(=O)N[C@@H](CC(C)C)C(=O)O [Hirulog-18a]
Ki (human α-thrombin [2]; Ki): 7.4 nM

Compound: CC[C@H](C)[C@H](NC(=O)[C@H](CCC(=O)O)NC(=O)[C@H](CCC(=O)O)NC(=O)[C@H](Cc1ccccc1)NC(=O)[C@H](CC(=O)O)NC(=O)CNC(=O)[C@H](CC(N)=O)NC(=O)CNC(=O)CNC(=O)CNC(=O)CNC(=O)[C@@H]1CCCN1C(=O)C[C@H](CCCNC(=N)N)NC(=O)[C@@H]1CCCN1C(=O)[C@H](N)Cc1ccccc1)C(=O)N1CCC[C@H]1C(=O)N[C@@H](CCC(=O)O)C(=O)N[C@@H](CCC(=O)O)C(=O)N[C@@H](Cc1ccc(O)cc1)C(=O)N[C@@H](CC(C)C)C(=O)O [Hirulog-18b]
Ki (human α-thrombin [2]; Ki): 4.6 nM

Compound: CC[C@H](C)[C@H](NC(=O)[C@H](CCC(=O)O)NC(=O)[C@H](CCC(=O)O)NC(=O)[C@H](Cc1ccccc1)NC(=O)[C@H](CC(=O)O)NC(=O)CNC(=O)[C@H](CC(N)=O)NC(=O)CNC(=O)CNC(=O)CNC(=O)CNC(=O)[C@@H](NC(=O)C[C@H](CCCNC(=N)N)NC(=O)[C@@H]1CCCN1C(=O)[C@H](N)Cc1ccccc1)C(C)C)C(=O)N1CCC[C@H]1C(=O)N[C@@H](CCC(=O)O)C(=O)N[C@@H](CCC(=O)O)C(=O)N[C@@H](Cc1ccc(O)cc1)C(=O)N[C@@H](CC(C)C)C(=O)O [Hirulog-18c]
Ki (human α-thrombin [2]; Ki): 205 nM

Compound: CC[C@H](C)[C@H](NC(=O)[C@H](CCC(=O)O)NC(=O)[C@H](CCC(=O)O)NC(=O)[C@H](Cc1ccccc1)NC(=O)[C@H](CC(=O)O)NC(=O)CNC(=O)[C@H](CC(N)=O)NC(=O)CNC(=O)CNC(=O)CNC(=O)CNC(=O)CNC[C@H](CCCNC(=N)N)NC(=O)[C@@H]1CCCN1C(=O)[C@H](N)Cc1ccccc1)C(=O)N1CCC[C@H]1C(=O)N[C@@H](CCC(=O)O)C(=O)N[C@@H](CCC(=O)O)C(=O)N[C@@H](Cc1ccc(O)cc1)C(=O)N[C@@H](CC(C)C)C(=O)O [Hirulog-19]
Ki (human α-thrombin [2]; Ki): 20 nM

Compound: CC[C@H](C)[C@H](NC(=O)[C@H](CCC(=O)O)NC(=O)[C@H](CCC(=O)O)NC(=O)[C@H](Cc1ccccc1)NC(=O)[C@H](CC(=O)O)NC(=O)CNC(=O)[C@H](CC(N)=O)NC(=O)CNC(=O)CNC(=O)CNC(=O)CNC(=O)CNC(=O)[C@H](CCCNC(=N)N)NC(=O)[C@@H]1CCCN1C(=O)[C@H](N)Cc1ccccc1)C(=O)N1CCC[C@H]1C(=O)N[C@@H](CCC(=O)O)C(=O)N[C@@H](CCC(=O)O)C(=O)N[C@@H](Cc1ccc(O)cc1)C(=O)N[C@@H](CC(C)C)C(=O)O [Hirulog-32]
inhibition of thrombin-catalyzed hydrolysis of Spectrozyme TH (in words) (human α-thrombin [2]): poor inhibitors | Ki (human α-thrombin [2]; Ki): > 2000 nM | kcat (human α-thrombin [3]): 8.92 s⁻¹

Compound: NC(N)=NCCC[C@H](NC(=O)[C@@H]1CCCN1C(=O)[C@H](N)Cc1ccccc1)C(=O)CCl [PPACK, D-Phe-Pro-Arg-CHCl2]
ED50 [1]: 75 nmol/kg/min | APTT (% control) (APTT): 287.9 % control | Bleeding Time (hemostasis; dose not given): 12 min

Compound: H-(D-Phe)-Pro-(β-homoarginine)-Pro-(Gly)4 -Asn-Gly-Asp-Phe-Glu-Glu-Ile-Pro-Glu-Glu-Tyr-Leu-OH
not cleaved (human α-thrombin [4]): kcat <0.01 min^-1; resistant to thrombin cleavage

Compound: H-(D-Phe)-Pro-(β-homoarginine)-Val-(Gly)4 -Asn-Gly-Asp-Phe-Glu-Glu-Ile-Pro-Glu-Glu-Tyr-Leu-OH
not cleaved (human α-thrombin [4]): kcat <0.01 min^-1; resistant to thrombin cleavage

cleaved bond [5]: Arg-Gly
Compound: H-(D-Phe)-Pro-Arg-(Gly)5 -Asn-Gly-Asp-Phe-Glu-Glu-Ile-Pro-Glu-Glu-Tyr-Leu-OH

cleaved bond [5]: Arg-Pro, minor
Compound: H-(D-Phe)-Pro-Arg-Pro-(Gly)4 -Asn-Gly-Asp-Phe-Glu-Glu-Ile-Pro-Glu-Glu-Tyr-Leu-OH

cleaved bond [5]: Arg-Sar
Compound: H-(D-Phe)-Pro-Arg-Sar-(Gly)5 -Asn-Gly-Asp-Phe-Glu-Glu-Ile-Pro-Glu-Glu-Tyr-Leu-OH

cleaved bond [5]: Arg-Pro, minor
Compound: N-acetyl-Gly-Asp-phe-Leu-Ala-Glu-(Gly)3 -Val-Arg-Pro-(Gly)4 -Asn-Gly-Asp-Phe-Glu-Glu-Ile-Pro-Glu-Glu-Tyr-Leu-OH

Ki (human α-thrombin [2]; read-out: Ki): 3.6 nM | kcat (human α-thrombin [3]): 0.000933 s⁻¹
Compound: N-acetyl-Gly-Asp-phe-Leu-Ala-Glu-(Gly)3 -Val-Arg-Pro-(Gly)4 -Asn-Gly-Asp-Phe-Glu-Glu-Ile-Pro-Glu-Glu-Tyr-Leu-OH [Hirulog-33]
